Source: patent US8710091B2, “Imidazolidine-2,4-dione derivatives, and use thereof as a cancer drug” (Ipsen Pharma S.A.S., priority 2009, dated 2014)

Legend:
Type in all cases: cell-based
androgen receptor = target: T1, androgen receptor (Homo sapiens, UniProt P10275, T878A); test: Measurement of the disappearance of the androgen receptor (Western blot, LNCaP cells); conditions: 72 hours after treatment
T1 construct: The LNCaP cell type (ATCC, 1740) originating from a prostate carcinoma expressing the androgen receptor; host or cells: LNCaP
T1 sequence (P10275 1-920 T878A): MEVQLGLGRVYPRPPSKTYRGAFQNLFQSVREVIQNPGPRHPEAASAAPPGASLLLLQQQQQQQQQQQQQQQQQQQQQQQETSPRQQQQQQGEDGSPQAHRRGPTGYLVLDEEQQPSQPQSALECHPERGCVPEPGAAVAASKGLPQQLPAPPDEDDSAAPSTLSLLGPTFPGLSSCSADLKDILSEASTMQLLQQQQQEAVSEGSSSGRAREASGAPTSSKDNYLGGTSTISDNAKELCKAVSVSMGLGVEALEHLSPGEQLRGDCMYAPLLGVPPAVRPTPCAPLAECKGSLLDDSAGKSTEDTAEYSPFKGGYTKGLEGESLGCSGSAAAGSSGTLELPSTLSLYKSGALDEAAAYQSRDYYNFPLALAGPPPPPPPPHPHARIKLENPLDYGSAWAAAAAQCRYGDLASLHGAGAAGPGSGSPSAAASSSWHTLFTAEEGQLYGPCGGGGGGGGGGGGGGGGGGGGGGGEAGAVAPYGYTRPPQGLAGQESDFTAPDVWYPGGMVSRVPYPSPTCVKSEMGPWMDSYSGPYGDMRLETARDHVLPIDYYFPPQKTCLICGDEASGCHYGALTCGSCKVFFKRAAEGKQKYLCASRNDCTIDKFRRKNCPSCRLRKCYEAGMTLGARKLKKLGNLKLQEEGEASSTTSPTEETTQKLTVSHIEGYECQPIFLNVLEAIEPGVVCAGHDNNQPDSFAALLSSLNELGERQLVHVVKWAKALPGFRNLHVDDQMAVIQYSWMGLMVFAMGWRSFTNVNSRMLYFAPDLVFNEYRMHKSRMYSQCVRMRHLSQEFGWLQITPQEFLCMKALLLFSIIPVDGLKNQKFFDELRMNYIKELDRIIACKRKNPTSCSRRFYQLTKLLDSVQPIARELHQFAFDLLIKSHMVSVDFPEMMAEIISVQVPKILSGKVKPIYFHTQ
Experimental: The cells of the LNCaP line are seeded at a rate of 2.5 millions of cells per 10 cm Petri dish in RPMI, 10% of foetal calf serum, 2 mM of glutamine, 100 U/ml of penicillin, 0.1 mg/ml of streptomycin and 0.01M HEPES, 1 mM of sodium pyruvate, 40% of D-glucose. 4 days later, the cells are treated with the compound to be tested. 72 hours after the treatment the cells are lyzed in lysis buffer (50 mM Tris pH 7.4, 150 mM NaCl, 1 mM EDTA, 20 mM NaF, 100 mM Na2VO3, 0.5% of NP40, 1% of Triton X-100, 1 mM EGTA, Pefabloc, protease inhibitor cocktail 11836170001 RocheDiagnostics, Phosphatase inhibitor cocktail set II Calbiochem). The cells are then scrapped and the lysate transferred into QIAshredder tubes (cat No. 79656 Qiagen) for centrifugation at 13,000 rpm for 15 min at 4° C. The supernatant is transferred into QIAshredder tubes for a second centrifugation at 13,000 rpm for 5 min in order to completely eliminate the DNA filaments. […] The loading buffer (sample loading buffer 3×ref 7722 Cell signaling technology) with added 1% beta-mercaptoethanol and 50 mM DTT, is added to the samples which are then heated for 10 min at 90° C. The samples are deposited under a volume of 20 μl on NuPAGE 4-12% Bis-Tris gels (cat No. NP0322BOX, Invitrogen). The migration takes place in MOPS buffer (Invitrogen) and is carried out for 1 hour at 180V. […]

DU145 cells = test: Antiproliferative activity on DU-145 in complete medium (WST-1); conditions: Homo sapiens, 144 h incubation, read-out: IC50 on the DU145 cells in culture (concentration inhibiting cell proliferation by 50%)
Experimental: The anti-proliferative activity of the compounds of the present invention is determined on DU-145 in complete medium.
Maintenance of the DU-145 line is carried out in DMEM, 10% of foetal calf serum, 2 mM of glutamine, 100 U/ml of penicillin, 0.1 mg/ml of streptomycin. • Seeding the plates: • The DU145 line is seeded at 400 or 800 cells/well in 90 μl of DMEM complete medium in 96-well plates (TPP). • Treatment of the cells: 24 h after the seeding, the cells are treated with 10 μl/well of compound diluted in the culture medium. Experiments showing the dose-effect of the compound are carried out on a scale of 1 nM to 100 μM. The concentrations used are the following: 1 nM/10/30/100/300/1000/3000/10,000/100,000 nM. The cells are incubated for 144 h at 37° C., 5% CO2. • Reading: On D6, 10 μL, of cell proliferation reagent WST-1 (Roche ref 1644807) is added to each well. After incubation for 2 to 4 hours at 37° C., 5% CO2, the absorbance at 450 nm is measured by spectrophotometry (Envision, Perkin Elmer). • Results: The experiments are carried out in duplicate and the best compounds are tested twice. […] 4. Measurement of the Disappearance of the Androgen Receptor

LNCaP cells = test: Antiproliferative activity on LNCaP in medium without steroids (WST-1); conditions: 144 h, 1 nM to 100 μM
Experimental: The anti-proliferative activity of the compounds of the present invention is determined on LNCaP in medium without steroids.
The maintenance of the LNCaP line is carried out under the usual conditions in RPMI, 10% of foetal calf serum, 2 mM of glutamine, 100 U/ml of penicillin, 0.1 mg/ml of streptomycin and 0.01M HEPES, 1 mM sodium pyruvate, 40% of D-glucose.
For the study under conditions without steroids, 24 hours before the seeding the culture medium of the cells is eliminated. The cells are washed with PBS, then incubated in the presence of RPMI medium without phenol red, 10% of foetal calf serum without steroids (treatment with carbon), 2 mM of glutamine, 100 U/ml of penicillin, 0.1 mg/ml of streptomycin and 0.01M HEPES, 1 mM of sodium pyruvate, 40% of D-glucose. • Seeding the plates:
The LNCaP line is seeded at 20,000 cells/well in 90 μl of RPMI medium with 10% foetal calf serum without steroids in 96-well plates coated with poly-D-lysine (Biocoat, Costar). • Treatment of the cells: 24 h after seeding, the cells are treated with 10 μl/well of compound diluted in the culture medium. Experiments showing the dose-effect of the compound are carried out on a scale of 1 nM to 100 μM. The concentrations used are the following: 1 nM/10/30/100/300/1000/3000/10,000/100,000 nM. Testosterone (SIGMA T1500) is used as a reference and tested at the same concentrations. The cells are incubated for 144 h at 37° C., 5% CO2. • Reading: On D6, 10 μL of cell proliferation reagent WST-1 (Roche ref 1644807) is added to each well. After incubation for 2 to 4 hours at 37° C., 5% CO2, the absorbance at 450 nm is measured by spectrophotometry (Envision, Perkin Elmer). • Results: The experiments are carried out in duplicate and the best compounds are tested twice. […] 3. Antiproliferative Activity on DU-145 in Complete Medium: […]

Compound | effect on the protein expression of the androgen receptor (FIGS. 2-4) (androgen receptor) | IC50 (DU145 cells) [µM] | effect on the cell proliferation of LNCaP cultured in medium without steroids (FIG. 1) (LNCaP cells)
CC(=O)Nc1ccc(N2C(=O)N(CCCCCCCCC[S+]([O-])CCCC(F)(F)C(F)(F)F)C(C)(C)C2=O)cc1C(F)(F)F (centres unmarked) [Example 18, N-[4-(4,4-dimethyl-2,5-dioxo-3-{9-[(4,4,5,5,5-pentafluoropentyl)sulphinyl]-nonyl}imidazolidin-1-yl)-2-(trifluoromethyl)phenyl]acetamide] | reduction in the protein expression of the androgen receptor | > 10 | anti-proliferative activity on the LNCaP cells without an agonist effect
CN(C)CC(=O)Nc1ccc(N2C(=O)N(CCCCCCCCC[S+]([O-])CCCC(F)(F)C(F)(F)F)C(C)(C)C2=O)cc1C(F)(F)F (centres unmarked) [Example 43a, N-[4-(4,4-dimethyl-2,5-dioxo-3-{9-[(4,4,5,5,5-pentafluoropentyl)sulphinyl]nonyl}imidazolidin-1-yl)-2-(trifluoromethyl)phenyl]-N^2,N^2-dimethylglycinamide] | reduction in the protein expression of the androgen receptor |  | anti-proliferative activity on the LNCaP cells without an agonist effect
